Laboratory results taken from patent publication US20190365784A1, “USE OF BRASSINOSTEROID ANALOGS FOR THE TREATMENT OF DERMAL DISORDERS BY SELECTIVELY MODULATING LIVER X RECEPTORS (LXR) AND DERMAL DISEASE TREATMENT BY BRASSINOSTEROID ANALOGS ACTING AS SELECTIVE LIVER X RECEPTOR (LXR) MODULATORS” (CONSEJO NACIONAL DE INVESTIGACIONES CIENTÍFICAS Y TÉCNICAS …, priority 2015, published 2019).

Experiments:
LXR-alpha [1] = assay: LXR-alpha expression in UV-irradiated HaCaT cells (real time PCR); type: cell-based, human; settings: 10 uM, 24 h after UV, vs. DMSO (UV, 24 h) and GW3965 (UV, 24 h)
Experimental: (§1) HaCaT cells—a human immortalized keratinocyte cell line—were exposed to 15 J/m^2 UVB (254 nm) irradiation. Twenty four hours after irradiation, the cells were harvested and RNA isolated to assess the expression of LXR-alpha, LXR-beta, ABCA1, TNF-alpha, IL-6, and IL-8 genes. HaCaT cells were cultured in DMEM supplemented with 10% (v/v) fetal bovine serum, penicillin (100 U/mL), streptomycin ([…]) and glutamine (2 mM). […] The expressions of ABCA1, TNF-alpha, IL-6, IL-8, LXR-alpha, and LXR-beta were normalized according to glyceraldehyde-3-phosphate dehydrogenase (GAPDH) expression. The results of three independent assays, carried out in duplicate for each condition, are reported.

ABCG1 [2] = assay: ABCG1 expression in HL-60 cells (real time PCR); type: cell-based, human; settings: GW3965 1 uM, 6 h
Experimental: (§2) To investigate the effects of Compounds I and II on the expression of three genes involved in lipid metabolism [fatty acid synthase (FAS); and two ATP-dependent cholesterol and phospholipid transporters, such as ABCA1 and ABCG1], human promyelocytic leukemia cells (HL-60) that endogenously express LXR-alpha and LXR-beta were incubated in the presence of either Comp I or Comp II (10 uM), or GW3965 (1 uM) for 6 h. mRNA levels for FAS, ABCA1 and ABCG1 were determined by real time PCR and results were normalized to GAPDH expression. HL-60 (10^6 cells/well) were cultured in RPMI medium supplemented with 5% (v/v) fetal bovine serum, penicillin (100 IU/mL), streptomycin (100 ug/mL) y cyprofloxacin (0.4 ug/mL). […] To obtain RNA, at the end of the incubation the cells were collected by centrifugation at 1,000 rpm for 2 min, washed with phosphate buffered saline, and lysed in 300 ul TRIZOL (Invitrogen). RNA samples were suspended in […] of RNAse free water, and their concentration determined (NanoDrop spectrophotometer). […] To obtain cDNA, 1 ug of total RNA was denatured by incubating for 5 min at 70° C., before the addition of a mixture containing 0.5 ug oligo-dT primers and 25 ng/ml of random primers (Invitrogen), 1.0 mM dNTPs (Invitrogen), and 200 U M-MLV reverse transcriptase (Promega); after this the mixture was retrotranscribed at 37° C. for 60 min, followed by an incubation at 95° C. for 5 min to inactivate the enzyme. For the real time PCR amplification (Stratagene Thermal Cycler), cDNA samples were diluted 1/5 to 1/10 depending on the target amplification product. Calibration curves were obtained by use of eight successive 1:2 sample dilutions. Amplifications were carried out in a 25 ul final volume (5 ul cDNA sample plus 20 ul of reaction mixture) in the presence of either 3, 4 or 5 mM MgCl2 (depending on the amplified sequence), 0.25 mM dNTPs (Invitrogen), 1.25 U Taq polymerase (Invitrogen), 1 μM of the specific primers according to the target amplification sequence, and 0.025 μl SYBR Green (Roche). […]

[3] = system: fatty acid synthase (FAS); assay: FAS expression in HL-60 cells (real time PCR); type: cell-based, human; settings: GW3965 1 uM, 6 h
Experimental: as §2

ABCA1 [4] = assay: ABCA1 expression in HaCaT cells (real time PCR); type: cell-based, human; settings: 10 uM
Experimental: as §1, with “HaCaT cells—a human immortalized keratinocyte cell line—were exposed to 15 J/m^2 UVB (254 nm) irradiation.” left out

SRBEP-1 = SRBEP-1 expression in HepG2 cells (real time PCR); type: cell-based, human; settings: GW3965 1 uM, 6 h
Experimental: (§3) The cells were incubated for 6 h in the presence of either Compound I (10 uM), or Compound II (10 uM), or the commercial LXR agonist GW3965 (1 uM), or Vehicle [DMSO, 0.1% (v/v)]). To obtain RNA, at the end of the incubation the cells were collected by centrifugation at 1,000 rpm for 2 min, washed with phosphate buffered saline, and lysed in 300 ul TRIZOL (Invitrogen). RNA samples were suspended in ul of RNAse free water, and their concentration determined (NanoDrop spectrophotometer). The ratio of the absorbance at 260 and 280 nm was used to assess RNA purity of an RNA preparation, with a value of 1.8-2.0 indicating pure RNA. To obtain cDNA, 1 ug of total RNA was denatured by incubating for 5 min at 70° C., before the addition of a mixture containing 0.5 ug oligo-dT primers and 25 ng/ml of random primers (Invitrogen), 1.0 mM dNTPs (Invitrogen), and 200 U M-MLV reverse transcriptase (Promega); after this the mixture was retrotranscribed at 37° C. for 60 min, followed by an incubation at 95° C. for 5 min to inactivate the enzyme. For the real time PCR amplification (Stratagene Thermal Cycler), cDNA samples were diluted 1/5 to 1/10 depending on the target amplification product. Calibration curves were obtained by use of eight successive 1:2 sample dilutions. Amplifications were carried out in a 25 ul final volume (5 ul cDNA sample plus 20 ul of reaction mixture) in the presence of either 3, 4 or 5 mM MgCl2 (depending on the amplified sequence), 0.25 mM dNTPs (Invitrogen), 1.25 U Taq polymerase (Invitrogen), 1 μM of the specific primers according to the target amplification sequence, and 0.025 μl SYBR Green (Roche). Melting curves were used to assess the specificity of the amplification products. […]

[5] = system: fatty acid synthase (FAS or FASN); assay: FASN expression in HepG2 cells (real time PCR); type: cell-based, human; settings: GW3965 1 uM, 6 h
Experimental: as §3

LXR-alpha [6] = target: T1, LXR-alpha (Homo sapiens, UniProt Q13133); assay: LXR-alpha/RXR LRE-luciferase reporter in transfected HEK293T cells; type: cell-based; settings: GW3965 1 uM, 18 h
T1 sequence (Q13133 1-447): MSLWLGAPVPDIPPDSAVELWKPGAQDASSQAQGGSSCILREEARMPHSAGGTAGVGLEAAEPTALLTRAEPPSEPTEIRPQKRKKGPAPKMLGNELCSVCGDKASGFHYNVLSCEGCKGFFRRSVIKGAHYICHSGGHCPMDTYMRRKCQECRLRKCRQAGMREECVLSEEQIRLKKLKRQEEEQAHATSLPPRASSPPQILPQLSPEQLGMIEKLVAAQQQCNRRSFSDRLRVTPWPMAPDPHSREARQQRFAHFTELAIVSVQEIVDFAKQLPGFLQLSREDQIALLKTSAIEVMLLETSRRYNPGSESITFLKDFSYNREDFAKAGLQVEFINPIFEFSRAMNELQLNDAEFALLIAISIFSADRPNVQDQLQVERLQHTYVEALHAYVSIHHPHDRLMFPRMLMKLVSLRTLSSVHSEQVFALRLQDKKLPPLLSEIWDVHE
T1 sequence (P19793 1-462 partner): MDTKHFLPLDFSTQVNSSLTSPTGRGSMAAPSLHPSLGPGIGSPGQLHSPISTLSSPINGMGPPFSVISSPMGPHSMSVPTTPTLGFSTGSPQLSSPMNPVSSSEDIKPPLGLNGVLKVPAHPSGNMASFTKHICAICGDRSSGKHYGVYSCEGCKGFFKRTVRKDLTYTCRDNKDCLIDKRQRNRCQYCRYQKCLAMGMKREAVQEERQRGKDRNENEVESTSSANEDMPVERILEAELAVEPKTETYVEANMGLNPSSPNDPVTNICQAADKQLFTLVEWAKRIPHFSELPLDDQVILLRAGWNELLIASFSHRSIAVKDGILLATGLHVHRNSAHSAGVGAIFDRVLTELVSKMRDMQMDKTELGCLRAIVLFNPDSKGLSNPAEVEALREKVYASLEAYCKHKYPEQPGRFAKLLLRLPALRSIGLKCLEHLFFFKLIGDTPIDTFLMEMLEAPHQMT
Source text: Since we had previously shown that the beneficial effects of the compounds of the invention are independent of glucocorticoid receptor (GR) activation, we set forth to investigate if they might exert their actions through activation of liver X receptors (LXR). For this purpose we used cultured cells transiently transfected with LXR-alpha, the retinoid X receptor (RXR) and a LXR response element-luciferase reporter (LRE-LUC). A. Human embryonic kidney cells (HEK293T; 5×10^5 cells/well) were cultured in DMEM medium supplemented with 10% (v/v) fetal bovine serum, 100 ug/ml of streptomycin, 100 IU/ml of penicillin and 2 mM glutamine. For the transient transfections, the cell cultures were added with plasmids carrying LXR-alpha (pLXR-alpha; 0.6 ug), the retinoid X receptor (pRXR; 0.2 ug), a LXR response element-luciferase reporter (pRE-LUC; 0.7 ug) and beta-galactosidase gene (pRSV-LacZ; 0.6 ug) as a transfection control, using Lipofectamine 2000 (Invitrogen). […] Compounds III to VI are […] analogs bearing a fluorine atom at C-6. To assess LXR-alpha activation, at the end of the incubation period luciferase activity was measured by use of a luciferase assay system (Promega). The results of three independent assays, carried out in duplicate for each condition, are reported.

ABCA1 [7] = assay: ABCA1 expression in HL-60 cells (real time PCR); type: cell-based, human; settings: GW3965 1 uM, 6 h
Experimental: as §2

IL-8 = IL-8 expression in UV-irradiated HaCaT cells (real time PCR); type: cell-based, human; settings: 10 uM, 24 h after UV, normalized to GAPDH
Experimental: as §1

LXR-alpha [8] = assay: LXR-alpha expression in HepG2 cells (real time PCR); type: cell-based, human; settings: GW3965 1 uM, 6 h
Experimental: The cells were incubated for 6 h in the presence of either Compound I (10 uM), or Compound II (10 uM), or the commercial LXR agonist GW3965 (1 uM), or Vehicle [DMSO, 0.1% (v/v)]). To obtain RNA, at the end of the incubation the cells were collected by centrifugation at 1,000 rpm for 2 min, washed with phosphate buffered saline, and lysed in 300 ul TRIZOL (Invitrogen). RNA samples were suspended in ul of RNAse free water, and their concentration determined (NanoDrop spectrophotometer). The ratio of the absorbance at 260 and 280 nm was used to assess RNA purity of an RNA preparation, with a value of 1.8-2.0 indicating pure RNA. To obtain cDNA, 1 ug of total RNA was denatured by incubating for 5 min at 70° C., before the addition of a mixture containing 0.5 ug oligo-dT primers and 25 ng/ml of random primers (Invitrogen), 1.0 mM dNTPs (Invitrogen), and 200 U M-MLV reverse transcriptase (Promega); after this the mixture was retrotranscribed at 37° C. for 60 min, followed by an incubation at 95° C. for 5 min to inactivate the enzyme. For the real time PCR amplification (Stratagene Thermal Cycler), cDNA samples were diluted 1/5 to 1/10 depending on the target amplification product. Calibration curves were obtained by use of eight successive 1:2 sample dilutions. […]

TNF-alpha = TNF-alpha expression in UV-irradiated HaCaT cells (real time PCR); type: cell-based, human; settings: 10 uM
Experimental: as §1

ABCG1 [9] = assay: ABCG1 expression in HepG2 cells (real time PCR); type: cell-based, human; settings: GW3965 1 uM, 6 h
Experimental: as §3

Structure (SMILES): O=C(O)Cc1cccc(OCCCN(Cc2cccc(C(F)(F)F)c2Cl)CC(c2ccccc2)c2ccccc2)c1 [GW3965, reference compound]
- LXR-alpha expression (LXR-alpha [1]): higher in HaCaT incubated in the presence of DMSO compared with non-irradiated cells and GW3965-treated cells
- ABCG1 expression higher than in vehicle-treated controls (ABCG1 [2]): ~10 times
- FAS expression higher than in vehicle-treated controls [3]: 1.8 times
- induction of ABCA1 expression versus Comp I- or Comp II-treated cells (ABCA1 [4]; HaCaT, 24 h after UV exposure): stronger
- induction of ABCA1 expression versus Comp I- or Comp II-treated cells (ABCA1 [4]; non-irradiated HaCaT): stronger
- SRBEP-1 expression higher than in vehicle (DMSO) treated controls (SRBEP-1): 4.6 times
- FASN expression higher than in vehicle (DMSO) treated controls [5]: 3.7 times
- LXR-alpha driven gene expression, increase compared with vehicle-treated cells (LXR-alpha [6]): 3 fold
- ABCA1 expression higher than in vehicle-treated controls (ABCA1 [7]): ~3 times
- IL-8 expression versus DMSO-treated cells (IL-8): significantly lower
- induction of LXR-alpha expression compared with DMSO treated HepG2 (LXR-alpha [8]): 3.5 times
- TNF-alpha expression versus Comp I-treated cells (TNF-alpha; 24 h after UV): significantly higher
- TNF-alpha expression versus DMSO-treated cells (TNF-alpha; 24 h after UV (254 nm, 15 J/m^2), normalized to GAPDH): significantly lower
- ABCG1 expression higher than in vehicle (DMSO) treated controls (ABCG1 [9]): 60 times
